Data published in paper PMC5615911 (Toxicology Reports, 2016).
Read-outs that look alike come from different tables or passages of the source.

How the values were obtained:
[1] = diet, 92 or 93 days; cited from earlier work
TA100 = conditions: pre-incubation, presence of metabolic activation; cited from earlier work
[2] = system: femoral bone marrow polychromatic erythrocytes; conditions: ip, cited from earlier work
CHO-WBL cells = conditions: ±metabolic activation, up to 5000 μg/mL; cited from earlier work
TA1535 = conditions: plate incorporation, absence of metabolic activation; cited from earlier work
[3] = male, cited from earlier work
[4] = system: S. typhimurium strains TA98, TA100, TA1535, TA1537; conditions: up to 5000 μg/plate; cited from earlier work
[5] = ref Chi, unpublished results, cited from earlier work
CYP3A4 [6] = molecular target: T1, CYP3A4 (Homo sapiens, UniProt P08684); conditions: ref Senomyx, unpublished results; cited from earlier work
[7] = 28 days oral gavage, highest dose evaluated; ref Senomyx, unpublished results; cited from earlier work
[8] = system: GPCRs, ion channels, nuclear receptors, transporters; conditions: 10 μM; ref Senomyx, unpublished results; cited from earlier work
CYP3A4 [9] = molecular target: T1, CYP3A4; conditions: ref Senomyx, unpublished results; cited from earlier work; remark: listed apart in the source
[10] = In vitro metabolism, rat liver microsomes; type: in vitro ADME, Sprague-Dawley rat; conditions: 60 min, with NADPH, positive control
[11] = In vitro metabolism, human liver microsomes; type: in vitro ADME; conditions: 60 min, with NADPH, positive control
[12] = female, oral gavage 10 mg/kg bw
[13] = female, oral gavage 30 mg/kg bw
[14] = female, oral gavage 100 mg/kg bw

T1 sequence (P08684 whole entry): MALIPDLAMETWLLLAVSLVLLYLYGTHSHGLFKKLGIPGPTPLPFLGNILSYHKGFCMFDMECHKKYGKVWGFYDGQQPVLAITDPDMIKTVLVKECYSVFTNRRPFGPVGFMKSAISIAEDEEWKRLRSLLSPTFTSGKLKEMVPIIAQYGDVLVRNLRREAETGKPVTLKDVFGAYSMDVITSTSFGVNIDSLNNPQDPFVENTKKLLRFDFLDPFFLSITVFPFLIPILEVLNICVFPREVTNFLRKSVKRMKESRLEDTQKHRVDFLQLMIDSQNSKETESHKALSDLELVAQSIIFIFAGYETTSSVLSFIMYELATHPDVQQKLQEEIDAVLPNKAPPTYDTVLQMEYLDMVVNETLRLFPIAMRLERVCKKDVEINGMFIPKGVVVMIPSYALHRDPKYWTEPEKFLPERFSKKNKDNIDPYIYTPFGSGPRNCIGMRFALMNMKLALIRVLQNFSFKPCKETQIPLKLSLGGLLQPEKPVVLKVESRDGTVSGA

For `COc1ccc(CNC(=O)C(=O)NCCc2ccccn2)c(OC)c1` [S336, N^1-(2,4-dimethoxybenzyl)-N^2-(2-(pyridin-2-yl)ethyl)oxalamide], the NOEL [1] is listed as “at least 100 mg/kg bw/day”, the Reverse mutation result (TA100) is listed as “weakly positive” and the “Micronucleated polychromatic erythrocytes vs negative control” value ([2]; up to 800 mg/kg bw, 24, 36, 48 h) is listed as “no statistically significant differences”. The Maximum tolerated dose [2] was 800 mg/kg bw, the Clastogenicity (CHO-WBL cells) was “non-clastogenic” and the Reverse mutation result (TA1535) was “weakly positive”. For the same molecule, the AUC0-last ([3]; iv 0.1 mg/kg bw) was 65.0 ± 1.3 ng·h/mL, the Cmax ([3]; iv 0.1 mg/kg bw) was 207 ± 25.8 ng/mL and the Tmax ([3]; iv 0.1 mg/kg bw) was 1.8 min. For the same molecule, the t1/2 ([3]; iv 0.1 mg/kg bw) was 25.2 min, the “% F” value ([3]; oral gavage 10 mg/kg bw) was 89.4% and the AUC0-last ([3]; oral gavage 10 mg/kg bw) was 5809 ± 444 ng·h/mL. The Cmax ([3]; oral gavage 10 mg/kg bw) was 7027 ± 925 ng/mL, the Tmax ([3]; oral gavage 10 mg/kg bw) was 15 min and the t1/2 ([3]; oral gavage 10 mg/kg bw) was 41.4 min. The “% F” value ([3]; oral gavage 30 mg/kg bw) was 114.2%, the AUC0-last ([3]; oral gavage 30 mg/kg bw) was 22260 ± 727 ng·h/mL and the Cmax ([3]; oral gavage 30 mg/kg bw) was 23430 ± 1436 ng/mL. The Tmax ([3]; oral gavage 30 mg/kg bw) was 11.4 min, the t1/2 ([3]; oral gavage 30 mg/kg bw) was 42.6 min and the “% F” value ([3]; oral gavage 100 mg/kg bw) was 134.6%. The AUC0-last ([3]; oral gavage 100 mg/kg bw) was 87490 ± 13350 ng·h/mL, the Cmax ([3]; oral gavage 100 mg/kg bw) was 36270 ± 6004 ng/mL and the Tmax ([3]; oral gavage 100 mg/kg bw) was 15 min. The t1/2 ([3]; oral gavage 100 mg/kg bw) was 58.8 min, the “Fold increase in AUClast for 10-fold increase in oral dose” value (“Fold increase in AUClast” below) [3] was 15.1 fold and the “Mutagenicity, conclusion” value [4] was “non-mutagenic”.

In the case of `COc1cccc(CNC(=O)C(=O)NCCc2ccccn2)c1OC` [S5456, N^1-(2,3-dimethoxybenzyl)-N^2-(2-(pyridin-2-yl)ethyl)oxalamide], the AUC0-last ([5]; female, iv 1.0 mg/kg bw) is given as 817 ± 186 ng·h/mL, the Cmax ([5]; female, iv 1.0 mg/kg bw) is given as 2398 ± 391 ng/mL and the Tmax ([5]; female, iv 1.0 mg/kg bw) is given as 1.8 min. The t1/2 ([5]; female, iv 1.0 mg/kg bw) was 19.2 min, the “% F” value [5, 12] was 51.4% and the AUC0-last [5, 12] was 4201 ± 1013 ng·h/mL. For the same molecule, the Cmax [5, 12] was 3258 ± 1087 ng/mL, the Tmax [5, 12] was 15 min and the t1/2 [5, 12] was 72 min. The “% F” value [5, 13] was 108.6%, the AUC0-last [5, 13] was 26610 ± 7306 ng·h/mL and the Cmax [5, 13] was 10980 ± 1500 ng/mL. The Tmax [5, 13] was 19.8 min, the t1/2 [5, 13] was 95.4 min and the “% F” value [5, 14] was 250.2%. For the same molecule, the AUC0-last [5, 14] was 204400 ± 44540 ng·h/mL, the Cmax [5, 14] was 34670 ± 4196 ng/mL and the Tmax [5, 14] was 55.2 min. The t1/2 [5, 14] was 175 min, the “Fold increase in AUClast” value ([5]; female) was 48.7 fold and the AUC0-last ([5]; male, iv 1.0 mg/kg bw) was 757 ± 112 ng·h/mL. The Cmax ([5]; male, iv 1.0 mg/kg bw) was 2633 ± 363 ng/mL, the Tmax ([5]; male, iv 1.0 mg/kg bw) was 1.8 min and the t1/2 ([5]; male, iv 1.0 mg/kg bw) was 19.2 min. The “% F” value ([5]; male, oral gavage 10 mg/kg bw) was 39.6%, the AUC0-last ([5]; male, oral gavage 10 mg/kg bw) was 3001 ± 498 ng·h/mL and the Cmax ([5]; male, oral gavage 10 mg/kg bw) was 3120 ± 787 ng/mL. The Tmax ([5]; male, oral gavage 10 mg/kg bw) was 15 min, the t1/2 ([5]; male, oral gavage 10 mg/kg bw) was 57 min and the “% F” value ([5]; male, oral gavage 30 mg/kg bw) was 42.0%. For the same molecule, the AUC0-last ([5]; male, oral gavage 30 mg/kg bw) was 9535 ± 4190 ng·h/mL, the Cmax ([5]; male, oral gavage 30 mg/kg bw) was 7643 ± 2404 ng/mL and the Tmax ([5]; male, oral gavage 30 mg/kg bw) was 18.6 min. The t1/2 ([5]; male, oral gavage 30 mg/kg bw) was 65.4 min, the “% F” value ([5]; male, oral gavage 100 mg/kg bw) was 73.9% and the AUC0-last ([5]; male, oral gavage 100 mg/kg bw) was 55950 ± 19820 ng·h/mL. The Cmax ([5]; male, oral gavage 100 mg/kg bw) was 33070 ± 14550 ng/mL, the Tmax ([5]; male, oral gavage 100 mg/kg bw) was 15 min and the t1/2 ([5]; male, oral gavage 100 mg/kg bw) was 81 min. For the same molecule, the “Fold increase in AUClast” value ([5]; male) was 18.6 fold, the “% inhibition at 10 μM” value (CYP3A4 [6]) was 51% and the NOEL [7] was 140 mg/kg bw/day. For the same molecule, the Significant off-target activities [8] was “No other significant off-target activities” and the “% inhibition at 10 μM, any CYP isozyme of the panel” value (CYP3A4 [9]) was less than 50%.

For `C[C@]12CC[C@H]3[C@@H](CCC4=CC(=O)CC[C@@]43C)[C@@H]1CC[C@@H]2O` [testosterone, reference compound], the Turnover [10] was “greater than 85%” and the Turnover [11] was “greater than 85%”.
